In patent publication US9637507B2, “Process for the preparation of liquid tin(II) alkoxides” (CHIANG MAI UNIVERSITY, priority 2012, dated 2017):

What was measured:
[1] = Solubility test of tin(II) alkoxides in organic solvents; format: physicochemical; details: liquid tin(II) alkoxides; temperature range of 25-38° C.
[2] = literature solids; cited from earlier work
[3] = Storage of liquid tin(II) alkoxides under nitrogen or argon; details: stored under a nitrogen or argon atmosphere

Row | Molecule | Solubility in common organic solvents [1] | Stability (moisture, oxygen, colour change) [2] | Storage stability (reactivity) [3]
1 | tin(II) n-octoxide | soluble in common organic solvents | – | –
2 | CCCC[O-].CCCC[O-].[Sn+2] [Tin(II) n-butoxide, tin(II) n-butoxide] | – | extremely moisture and oxygen sensitive | without any significant effect on their reactivity
3 | CC[O][Sn][O]CC [Tin(II) ethoxide, reference compound] | – | turned yellow rapidly, even when the product was dried and kept under vacuum | –
4 | tin(II) n-hexoxide | soluble in common organic solvents | – | –
